Consider 18 molecules from patent US10961215B2, “N-aryl and N-heteroaryl piperidine derivatives as liver X receptor beta agonists, compositions, and their use” (Merck Sharp & Dohme Corp., priority 2016, dated 2021).

Test [1] concerns the target T1, GST tagged LXRbeta LBD (ligand binding domain) (Homo sapiens, UniProt P55055).
T1 construct: purchased Invitrogen pv4658.pps
T1 sequence (P55055 222-460 limits assumed): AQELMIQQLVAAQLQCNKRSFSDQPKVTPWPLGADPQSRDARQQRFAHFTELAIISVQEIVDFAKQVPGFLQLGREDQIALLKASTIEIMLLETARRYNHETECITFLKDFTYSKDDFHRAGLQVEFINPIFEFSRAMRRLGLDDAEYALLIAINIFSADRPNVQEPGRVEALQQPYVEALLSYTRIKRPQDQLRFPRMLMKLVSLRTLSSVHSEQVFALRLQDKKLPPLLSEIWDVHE
The test can be described thus: LanthaScreen TR-FRET Liver X Receptor Coactivator Assay, LXR beta-LBD (co-activator recruitment; IP and % Emax relative to T0901317). Format: biochemical. As to conditions: for EC50: Inflection Point of co-activator recruitment, LXR beta-LBD, TR-FRET; for Emax: efficacy at max dose in relation to reference T0901317, LXR beta-LBD, read-out: LXR beta actiivty at max dose (%). A digest of the protocol:
(§1)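 Compounds were first combined with the GST-LBD protein. A premixed fluorescein coactivator peptide and terbium-labelled anti-GST antibody was then added. Plates were incubated at room temperature and TR-FRET measured.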
A general note: TR-FRET usually uses a lanthanide donor and a delayed reading to cut background.

In test [2] the target is T2, GST tagged LXRalpha LBD (ligand binding domain) (Homo sapiens, UniProt Q13133).
T2 construct: purchased Invitrogen pv4655
T2 sequence (Q13133 209-447 limits assumed): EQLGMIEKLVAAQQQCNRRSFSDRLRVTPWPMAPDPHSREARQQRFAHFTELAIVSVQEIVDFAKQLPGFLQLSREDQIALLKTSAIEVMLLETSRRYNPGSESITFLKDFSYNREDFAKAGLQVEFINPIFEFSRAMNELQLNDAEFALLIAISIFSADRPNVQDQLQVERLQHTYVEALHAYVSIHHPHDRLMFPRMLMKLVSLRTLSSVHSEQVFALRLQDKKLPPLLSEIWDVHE
Put plainly: LanthaScreen TR-FRET Liver X Receptor Coactivator Assay, LXR alpha-LBD (co-activator recruitment; IP and % Emax relative to T0901317). It is filed as biochemical. To be noted: for LXR alpha IP (nM) / EC50: Inflection Point of co-activator recruitment, LXR alpha-LBD, TR-FRET; for Emax: efficacy at max dose in relation to reference T0901317, LXR alpha-LBD, read-out: LXR alpha actiivty at max dose (%). A digest of the protocol:
as §1

One may read the EC50 as the concentration giving half of the maximal effect. Consider `CNC(=O)c1ccc(N2CCC3(CC2)C[C@H]3CCN(C)C(=O)[C@](O)(c2ccccc2)C(F)(F)F)cc1Cl` [Example 7-24, 2-chloro-N-methyl-4-((S)-1-(2-((R)-3,3,3-trifluoro-2-hydroxy-N-methyl-2-phenylpropanamido)ethyl)-6-azaspiro[2.5]octan-6-yl)benzamide], for which, in test [1], a half-maximal effect (EC50) was put at 1410 nM and the Emax was 37%. For the same molecule, in test [2], the “LXR alpha IP (nM)” value is on record as “No IP” and the Emax was 16%.

Take `CN(C)C(=O)c1ccc(N2CCC([C@H]3C[C@H]3CN(C)C(=O)[C@](O)(c3ccccc3)C(F)(F)F)CC2)nc1Cl` [Example 15-2, 2-chloro-N,N-dimethyl-6-(4-((1R,2R)-2-(((R)-3,3,3-trifluroo-2-hydroxy-N-methyl-2-phenylpropanamido)methyl)cyclopropyl)piperidin-1-yl)nicotinamide]: the figures for the EC50 in test [1] and in test [2] were 10 nM and 289 nM, respectively. The Emax is 64% in test [1] and 25% in test [2].

With `CN(C)C(=O)c1ccc(N2CCC(CC3CC(NC(=O)[C@](O)(c4ccccc4)C(F)(F)F)C3)CC2)cc1Cl` (stereo partly drawn) [Example 11-4, (R)-2-chloro-N,N-dimethyl-4-(4-((3-(3,3,3-trifluoro-2-hydroxy-2-phenylpropanamido)cyclobutyl)methyl)piperidin-1-yl)benzamide], in test [1], the response was half-maximal at 270 nM (EC50) and the Emax turned out to be 85%. Also, in test [2], the “LXR alpha IP (nM)” value is listed as “No IP” and the Emax turned out to be 14%.

As for `COc1cccc([C@@](O)(C(=O)N(C)[C@H]2C[C@@H](C3CCN(c4ccc(C(=O)N(C)C)c(Cl)n4)CC3)C2)C(F)(F)F)c1` [Example 17-4, cis-2-chloro-N,N-dimethyl-6-(4-(-3-((R)-3,3,3-trifluoro-2-hydroxy-2-(3-methoxyphenyl)-N-methylpropanamido)cyclobutyl)piperidin-1-yl)nicotinamide], in test [1], the EC50 is 53 nM and the Emax was found to be 39%. In addition, in test [2], the “LXR alpha IP (nM)” value is “No IP” and the Emax came out at 13%.

Regarding `COc1cccc([C@]2(C(=O)N(C)CCCC3CCN(c4ccc(C(=O)N(C)C)c(Cl)n4)CC3)CCCO2)c1` [Example 1-46, (S)-2-chloro-6-(4-(3-(2-(3-methoxyphenyl)-N-methyltetrahydrofuran-2-carboxamido)propyl)piperidin-1-yl)-N,N-dimethylnicotinamide], in test [1], a half-maximal response (EC50) required 412 nM and the Emax is 37%. In test [2], the “LXR alpha IP (nM)” value was “No IP” and the Emax worked out at 0%.

Regarding `CN(C)C(=O)c1ccc(N2CCC(CCCN(C)C(=O)[C@](O)(c3ccccc3)C(F)(F)F)CC2)nc1C#N` [Example 2-19, (R)-2-cyano-N,N-dimethyl-6-(4-(3-(3,3,3-trifluoro-2-hydroxy-N-methyl-2-phenylpropanamido)propyl)piperidin-1-yl)nicotinamide], in test [1], the midpoint of the response, the EC50, lay at 128 nM and the Emax turned out to be 76%. In addition, in test [2], the midpoint of the response, the EC50, lay at 2610 nM and the Emax worked out at 23%.

As to `COc1cccc([C@@](O)(C(=O)N(C)CCCC2CCN(c3ccc(C(=O)N4CC[C@H](CO)C4)c(Cl)n3)CC2)C(F)(F)F)c1` [Example 2-8, (R)-N-(3-(1-(6-chloro-5-((S)-3-(hydroxymethyl)pyrrolidine-1-carbonyl)pyridin-2-yl)piperidin-4-yl)propyl)-3,3,3-trifluoro-2-hydroxy-2-(3-methoxyphenyl)-N-methylpropanamide], in test [1], the EC50 was 11 nM and the Emax was 47%. In addition, in test [2], the midpoint of the response, the EC50, lay at 690 nM and the Emax was 40%.

Consider `CN(C)C(=O)c1ccc(N2CCC(CCCCN(C)C(=O)C(O)(c3ccccc3)C(F)(F)F)CC2)cc1Cl` (stereo not drawn) [Example 4-11, 2-chloro-N,N-dimethyl-4-(4-(4-(3,3,3-trifluoro-2-hydroxy-N-methyl-2-phenylpropanamido)butyl)piperidin-1-yl)benzamide], for which, in test [1], the midpoint of the response, the EC50, lay at 120 nM and the Emax came out at 40%. In test [2], the “LXR alpha IP (nM)” value is “No IP” and the Emax worked out at 0%.

As to `CN(C)C(=O)c1ccc(N2CCC(CCCN(C)C(=O)[C@](O)(c3cccc(OC4CC4)c3)C(F)(F)F)CC2)nc1Cl` [Example 1-41, (R)-2-chloro-6-(4-(3-(2-(3-cyclopropoxyphenyl)-3,3,3-trifluoro-2-hydroxy-N-methylpropanamido)propyl)piperidin-1-yl)-N,N-dimethylnicotinamide], in test [1], the EC50 stood at 105 nM and the Emax is 44%. Further, in test [2], the “LXR alpha IP (nM)” value is on record as “No IP” and the Emax was found to be 0%.

As to `CNC(=O)c1ccc(N2CCC3(CC2)C[C@@H]3CCN(C)C(=O)[C@](O)(c2cccc(OC)c2)C(F)(F)F)cc1Cl` [Example 7-8, 2-chloro-N-methyl-4-((R)-1-(2-((R)-3,3,3-trifluoro-2-hydroxy-2-(3-methoxyphenyl)-N-methylpropanamido)ethyl)-6-azaspiro[2.5]octan-6-yl)benzamide], in test [1], a half-maximal effect (EC50) was put at 82 nM and the Emax stood at 56%. In addition, in test [2], a half-maximal response (EC50) required 1270 nM and the Emax turned out to be 33%.

For `COc1cccc([C@@](O)(C(=O)N(C)CCCC2(F)CCN(c3ccc(C(=O)N(C)C)c(Cl)c3)CC2)C(F)(F)F)c1` [Example 12-2, (R)-2-chloro-4-(4-fluoro-4-(3-(3,3,3-trifluoro-2-hydroxy-2-(3-methoxyphenyl)-N-methylpropanamido)propyl)piperidin-1-yl)-N,N-dimethylbenzamide], in test [1], the EC50 stood at 218 nM and the Emax came to 25%. Besides, in test [2], the “LXR alpha IP (nM)” value is “No IP” and the Emax came to 4%.

Consider `CC(C)C(O)(C(=O)N(C)CCCC1CCN(c2ccc(C(=O)N(C)C)c(Cl)c2)CC1)C(F)(F)F` (stereo not drawn) [Example 4-8, 2-chloro-4-(4-(3-(2-hydroxy-N,3-dimethyl-2-(trifluoromethyl)butanamido)propyl)piperidin-1-yl)-N,N-dimethyl-benzamide], for which, in test [1], the midpoint of the response, the EC50, lay at 471 nM and the Emax amounted to 73%. Further, in test [2], the half-maximal effective concentration (EC50) stood at 3350 nM and the Emax was determined as 23%.

For `CN(C)C(=O)c1ccc(N2CCC(CCCN(C)C(=O)[C@@]3(c4cccc(Cl)c4)CCCO3)CC2)nc1Cl` [Example 1-63, (S)-2-chloro-6-(4-(3-(2-(3-chlorophenyl)-N-methyltetrahydrofuran-2-carboxamido)propyl)piperidin-1-y)-N,N-dimethylnicotinamide], in test [1], a half-maximal effect (EC50) was put at 368 nM and the Emax amounted to 40%. Besides, in test [2], the “LXR alpha IP (nM)” value is reported as “No IP” and the Emax was 0%.

On to `COc1cccc([C@@](O)(C(=O)N(C)CCCC2CCN(c3ccc(C(=O)N4CCC4)c(Cl)n3)CC2)C(F)(F)F)c1` [Example 2-15, (R)-N-(3-(1-(5-(azetidine-1-carbonyl)-6-chloropyridin-2-yl)piperidin-4-yl)propyl)-3,3,3-trifluoro-2-hydroxy-2-(3-methoxyphenyl)-N-methylpropanamide], for which, in test [1], it took 272 nM to reach a half-maximal effect (EC50) and the Emax came out at 49%. Also, in test [2], the “LXR alpha IP (nM)” value is on record as “No IP” and the Emax stood at 0%.

As to `CN(C)C(=O)c1ccc(N2CCC([C@@H]3C[C@H]3CN(C)C(=O)[C@@](O)(c3ccccc3)C(F)(F)F)CC2)cc1Cl` [Example 15-20, 2-chloro-N,N-dimethyl-4-(4-((1S,2R)-2-(((S)-3,3,3-trifluoro-2-hydroxy-N-methyl-2-phenylpropanamido)methyl)cyclopropyl)piperidin-1-yl)benzamide], in test [1], the EC50 is 403 nM and the Emax is 65%. For the same molecule, in test [2], the “LXR alpha IP (nM)” value is reported as “No IP” and the Emax came to 12%.

As to `COc1cccc([C@@](O)(C(=O)N(C)CCC2CC3(CCN(c4ccc(C(=O)N(C)C)c(Cl)n4)CC3)C2)C(F)(F)F)c1` [Example 13-1], in test [1], the response was half-maximal at 34 nM (EC50) and the Emax came to 50%. Further, in test [2], the EC50 amounted to 472 nM and the Emax amounted to 26%.

With `COc1cccc([C@@](O)(C(=O)N(C)C[C@@H]2C[C@@H]2CC2CCN(c3ccc(C(=O)N(C)C)c(Cl)n3)CC2)C(F)(F)F)c1` [Example 18-2, 2-chloro-N,N-dimethyl-6-(4-(((1S,2R)-2-(((R)-3,3,3-trifluoro-2-hydroxy-2-(3-methoxyphenyl)-N-methylpropanamido)methyl)cyclopropyl)methyl)piperidin-1-yl)nicotinamdie], in test [1], the midpoint of the response, the EC50, lay at 124 nM and the Emax is 44%. In test [2], the “LXR alpha IP (nM)” value is listed as “No IP” and the Emax was 0%.

In the case of `CN(C)C(=O)c1ccc(N2CCC3(CC2)CC3CCN(C)C(=O)[C@@](O)(c2ccccc2)C(F)(F)F)cc1Cl` (stereo partly drawn) [Example 7-1, 2-chloro-N,N-dimethyl-4-(1-(2-((S)-3,3,3-trifluoro-2-hydroxy-N-methyl-2-phenylpropanamido)ethyl)-6-azaspiro[2.5]octan-6-yl)benzamide], the EC50 worked out at 342 nM in test [1] and 4090 nM in test [2]. Moreover, the Emax in test [1] was 54%; in test [2], 10%.
